According to patent US10195185B2, “3-(1H-imidazo[4,5-C]pyridin-2-yl)-1H-pyrazolo[4,3-B]pyridines and therapeutic uses thereof” (Samumed, LLC, priority 2015, dated 2019):

How the values were obtained:
Assay type in all cases: cell-based
[1] = test system: SW480 colon cancer cells; assay: Cell viability assay (CellTiter-Blue), four days; conditions: Homo sapiens, 96 h; for EC50: CellTiter-Blue cell viability; for inhibition at 10 µM: read-out: percent inhibition at 10 μM (given for EC50 of >10 μM)
Protocol: Representative compounds were screened using the following assay procedure to assess the effect on cell viability as described below.
Each compound was dissolved in DMSO as a 10 mM stock and used to prepare compound source plates. Serial dilution (1:3, 8-point dose-response curves from 10 μM to 0.0045 μM) and compound transfer was performed using the ECHO 550 (Labcyte, Sunnyvale, Calif.) into 96-well clear bottom, black-walled plates (Corning-Costar).
Approximately 2×10^3 SW480 colon cancer cells were seeded into each well and allowed to incubate in the presence or absence of compound for four days at 37° C./5% CO2. Eight replicates of DMSO-treated cells served as controls and cells treated with compound were performed in duplicate.
After incubation, 20 μL of CellTiter-Blue (Promega) was added to each well allowed to incubate for approximately 3 hours. This reagent was a buffered solution which contains resazurin, metabolically active cells were able to reduce rezarurin (blue) into resorufin (pink) which was highly fluorescent. This measured fluorescence was used as a readout for cell viability.
After incubation, the plates were read at Ex 560 nm Em 590 nm (Cytation 3, BioTek). Dose-response curves were generated and EC50 concentration values were calculated using non-linear regression curve fit in the GraphPad Prism (San Diego, Calif.) or Dotmatics' Studies Software (Bishops Stortford, UK). For EC50 of >10 μM, the percent inhibition at 10 μM is provided.

[2] = test system: Wnt activity (Wnt-responsive human Sp5 promoter, TCF/LEF binding sites) in SW480 colon carcinoma cells; assay: Wnt activity screening assay: Sp5-Luc luciferase reporter gene in SW480 cells; conditions: for EC50: 10-point dose-response from 10 μM, incubated overnight; for inhibition at 10 µM: given for EC50 of >10 μM, read-out: percent inhibition at 10 μM
Text: The screening assay for Wnt activity is described as follows. Reporter cell lines can be generated by stably transducing cancer cell lines (e.g., colon cancer) or primary cells (e.g., IEC-6 intestinal cells) with a lentiviral construct that includes a Wnt-responsive promoter driving expression of the firefly luciferase gene.
SW480 colon carcinoma cells were transduced with a lentiviral vector expressing luciferase with a human Sp5 promoter consisting of a sequence of eight TCF/LEF binding sites. SW480 cells stably expressing the Sp5-Luc reporter gene and a hygromycin resistance gene were selected by treatment with 150 μg/mL of hygromycin for 7 days. These stably transduced SW480 cells were expanded in cell culture and used for all further screening activities. Each compound was dissolved in DMSO as a 10 mM stock and used to prepare compound source plates. Serial dilution (1:3, 10-point dose-response curves starting from 10 μM) and compound transfer was performed using the ECHO 550 (Labcyte, Sunnyvale, Calif.) into 384-well white solid bottom assay plates (Greiner Bio-One) with appropriate DMSO backfill for a final DMSO concentration of 0.1%. For Sp5-Luc reporter gene assays, the cells were plated at 4,000 cells/well in 384-well plates with medium containing 1% fetal bovine serum and incubated overnight at 37° C. and 5% CO2. Following incubation, 20 μl of BrightGlo luminescence reagent (Promega) was added to each well of the 384-well assay plates. The plates were placed on an orbital shaker for 2 min and then luminescence was quantified using the Envision (Perkin Elmer) plate reader. Readings were normalized to DMSO only treated cells, and normalized activities were utilized for EC50 calculations using the dose-response log (inhibitor) vs. response-variable slope (four parameters) nonlinear regression feature available in GraphPad Prism 5.0 (or Dotmatics). For EC50 of >10 μM, the percent inhibition at 10 μM is provided.

[3] = test system: Primary human fibroblasts derived from IPF patients (LL29 cells) treated with TGF-β1; assay: Inhibition of the fibrotic process: αSMA staining in TGF-β1 treated fibroblasts; conditions: Fibroblast, 96 h, LL29 fibroblasts treated with TGF-β1, 4 days; for inhibition at 10 µM: read-out: percent inhibition in brackets beside EC50 >10 μM
Text: Representative compounds were screened using primary human fibroblasts (derived from IPF patients) treated with TGF-β1 to determine their ability to inhibit the fibrotic process.
Primary human fibroblasts derived from IPF patients (LL29 cells) [^1Xiaoqiu Liu, et. al., “Fibrotic Lung Fibroblasts Show Blunted Inhibition by cAMP Due to Deficient cAMP Response Element-Binding Protein Phosphorylation”, Journal of Pharmacology and Experimental Therapeutics (2005), 315(2), 678-687; ^2Watts, K. L., et. al., “RhoA signaling modulates cyclin D1 expression in human lung fibroblasts; implications for idiopathic pulmonary fibrosis”, Respiratory Research (2006), 7(1), 88] were obtained from American Type Culture Collection (ATCC) and expanded in F12 medium supplemented with 15% Fetal Bovine Serum and Penicillin/Streptomycin.
Each compound was dissolved in DMSO as a 10 mM stock and used to prepare compound source plates. Serial dilution (1:2, 11-point dose-response curves from 10 μM to 1.87 nM) and compound transfer was performed using the ECHO 550 (Labcyte, Sunnyvale, Calif.) into 384-well clear bottom assay plates (Greiner Bio-One) with appropriate DMSO backfill for a final DMSO concentration of 0.1%. LL29 cells are plated at 1,500 cells/well in 80 μL/well F12 medium supplemented with 1% Fetal Bovine Serum. One hour after addition of the cells, TGF-β1 (Peprotech; 20 ng/mL) was added to the plates to induce fibrosis (ref. 1 and 2 above). Wells treated with TGF-β1 and containing DMSO were used as controls. Cells were incubated at 37° C. and 5% CO2 for 4 days. Following incubation for 4 days, SYTOX green nucleic acid stain (Life Technologies [Thermo Fisher Scientific]) was added to the wells at a final concentration of 1 μM and incubated at room temperature for 30 min. Cells were then fixed using 4% formaldehyde (Electron Microscopy Sciences), washed 3 times with PBS followed by blocking and permeabilization using 3% Bovine Serum Albumin (BSA; Sigma) and 0.3% Triton X-100 (Sigma) in PBS. Cells were then stained with antibody specific to α-smooth muscle actin (αSMA; Abcam) (ref. 1 and 2 above) in 3% Bovine Serum Albumin (BSA; Sigma) and 0.3% Triton X-100 (Sigma) in PBS, and incubated overnight at 4° C. Cells were then washed 3 times with PBS, followed by incubation with Alexa Flor-647 conjugated secondary antibody (Life Technologies [Thermo Fisher Scientific]) and DAPI at room temperature for 1 hour. Cells were then washed 3 times with PBS and plates were sealed for imaging. αSMA staining was imaged by excitation at 630 nm and emission at 665 nm and quantified using the Compartmental Analysis program on the CellInsight CX5 (Thermo Scientific). Dead or apoptotic cells were excluded from analysis based on positive SYTOX green staining. % of total cells positive for αSMA were counted in each well and normalized to the average of 11 wells treated with TGF-β1 on the same plate using Dotmatics' Studies Software. The normalized averages (fold change over untreated) of 3 replicate wells for each compound concentration were used to create dose-responses curves and EC50 values were calculated using non-linear regression curve fit in the Dotmatics' Studies Software. For EC50 of >10 μM, the percent inhibition at 10 μM is provided.

Structure (SMILES)	EC50 [1]	EC50 [2]	EC50 [3]	inhibition at 10 µM [2]	inhibition at 10 µM [3]	inhibition at 10 µM [1]
CCC(=O)Nc1cncc(-c2ccc3[nH]nc(-c4nc5c(N6CCCCC6)nccc5[nH]4)c3n2)c1 [Compound 169, N-(5-(3-(4-(Piperidin-1-yl)-1H-imidazo[4,5-c]pyridin-2-yl)-1H-pyrazolo [4,3-b]pyridin-5-yl)pyridin-3-yl)propionamide]	3.8 µM	4.2 µM	7.89 µM			
c1cc2[nH]c(-c3n[nH]c4ccc(-c5cncc(CNCC6CCCC6)c5)nc34)nc2c(-c2ccoc2)n1 [Compound 333, 1-Cyclopentyl-N-((5-(3-(4-(furan-3-yl)-1H-imidazo[4,5-c]pyridin-2-yl)-1H-pyrazolo [4,3-b]pyridin-5-yl)pyridin-3-yl)methyl)methanamine]	3.42 µM	3.82 µM	> 10 µM		46.9%	
Cn1cc(-c2ccc3[nH]nc(-c4nc5c(-c6cc(F)cc(CNS(C)(=O)=O)c6)nccc5[nH]4)c3n2)cn1 [Compound 764, N-(3-Fluoro-5-(2-(5-(1-methyl-1H-pyrazol-4-yl)-1H-pyrazolo [4,3-b]pyridin-3-yl)-1H-imidazo[4,5-c]pyridin-4-yl)benzyl)methanesulfonamide]	5.88 µM	0.837 µM	1.06 µM			
CN1CCN(c2nccc3[nH]c(-c4n[nH]c5ccc(-c6cncc(NC(=O)C7CCCC7)c6)nc45)nc23)CC1 [Compound 246, N-(5-(3-(4-(4-Methylpiperazin-1-yl)-1H-imidazo[4,5-c]pyridin-2-yl)-1H-pyrazolo [4,3-b]pyridin-5-yl)pyridin-3-yl)cyclopentanecarboxamide]	> 10 µM	> 10 µM	5.26 µM	15%		0%
O=C(Nc1cncc(-c2ccc3[nH]nc(-c4nc5c(-c6ccc(Cl)s6)nccc5[nH]4)c3n2)c1)C1CCC1 [Compound 1056, N-(5-(3-(4-(5-Chlorothiophen-2-yl)-1H-imidazo[4,5-c]pyridin-2-yl)-1H-pyrazolo[4,3-b]pyridin-5-yl)pyridin-3-yl)cyclobutanecarboxamide]	2.15 µM	0.897 µM	2.24 µM			
CCNCc1cncc(-c2ccc3[nH]nc(-c4nc5c(-c6ccccn6)nccc5[nH]4)c3n2)c1 [Compound 146, N-((5-(3-(4-(Pyridin-2-yl)-1H-imidazo[4,5-c]pyridin-2-yl)-1H-pyrazolo[4,3-b]pyridin-5-yl)pyridin-3-yl)methyl)ethanamine]	4.76 µM	> 10 µM	1.04 µM	35.5%		
Cc1cn(-c2nccc3[nH]c(-c4n[nH]c5ccc(-c6cncc(CN7CCCC7)c6)nc45)nc23)cn1 [Compound 210, 3-(4-(4-Methyl-1H-imidazol-1-yl)-1H-imidazo[4,5-c]pyridin-2-yl)-5-(5-(pyrrolidin-1-ylmethyl)pyridin-3-yl)-1H-pyrazolo [4,3-b]pyridine]	> 10 µM	> 10 µM	> 10 µM	5.5%	2.9%	7.2%
Cc1ncc(-c2ccc3[nH]nc(-c4nc5c(-c6ccoc6)nccc5[nH]4)c3n2)n1C [Compound 685, 5-(1,2-Dimethyl-1H-imidazol-5-yl)-3-(4-(furan-3-yl)-1H-imidazo[4,5-c]pyridin-2-yl)-1H-pyrazolo[4,3-b]pyridine]	0.624 µM	0.211 µM	5.3 µM			

More lines, main results first:

EC50 [1]	EC50 [2]	Structure (SMILES)	EC50 [3]	inhibition at 10 µM [2]	inhibition at 10 µM [3]	inhibition at 10 µM [1]
1.24 µM	0.547 µM	Fc1cccc(-c2nccc3[nH]c(-c4n[nH]c5ccc(-c6cncc(CN7CCC(F)(F)C7)c6)nc45)nc23)c1 [Compound 26, 5-(5-((3,3-Difluoropyrrolidin-1-yl)methyl)pyridin-3-yl)-3-(4-(3-fluorophenyl)-1H-imidazo[4,5-c]pyridin-2-yl)-1H-pyrazolo[4,3-b]pyridine]	3.21 µM			
4.69 µM	> 10 µM	CN(C)Cc1cncc(-c2ccc3[nH]nc(-c4nc5c(N6CCCCC6)nccc5[nH]4)c3n2)c1 [Compound 181, N,N-Dimethyl-1-(5-(3-(4-(piperidin-1-yl)-1H-imidazo[4,5-c]pyridin-2-yl)-1H-pyrazolo [4,3-b]pyridin-5-yl)pyridin-3-yl)methanamine]	4.05 µM	8.4%		
> 10 µM	1.22 µM	Fc1ccc(-c2nccc3[nH]c(-c4n[nH]c5ccc(-c6cncnc6)nc45)nc23)cc1 [Compound 55, 3-(4-(4-Fluorophenyl)-1H-imidazo[4,5-c]pyridin-2-yl)-5-(pyrimidin-5-yl)-1H-pyrazolo[4,3-b]pyridine]	2.18 µM			15.1%
> 10 µM	> 10 µM	Cn1cc(-c2ccc3[nH]nc(-c4nc5c(-c6ccc(F)cc6)nccc5[nH]4)c3n2)c(CO)n1 [Compound 1128, (4-(3-(4-(4-Fluorophenyl)-1H-imidazo[4,5-c]pyridin-2-yl)-1H-pyrazolo[4,3-b]pyridin-5-yl)-1-methyl-1H-pyrazol-3-yl)methanol]	2.67 µM	19.6%		9.1%
> 10 µM	> 10 µM	O=C(Nc1cncc(-c2ccc3[nH]nc(-c4nc5c(-c6ccccc6F)nccc5[nH]4)c3n2)c1)C1CCCC1 [Compound 78, N-(5-(3-(4-(2-Fluorophenyl)-1H-imidazo[4,5-c]pyridin-2-yl)-1H-pyrazolo [4,3-b]pyridin-5-yl)pyridin-3-yl)cyclopentanecarboxamide]	> 10 µM	14.8%	0%	19.8%
